Measurements reported in US20220010300A1, “METHODS OF TREATING NEURODEGENERATIVE DISORDERS AND IDENTIFYING TARGETS THEREFORE” (The Board of Trustees of the Leland Stanford Junior …, priority 2019, published 2022).

How the values were obtained:
BV-2 cells [1] = experiment: Iodo-BODIPY irradiation assay with Calcein AM live cell staining; type: cell-based, mouse; conditions: LPS 5 μg/ml for 18 hours, 3.8 μM iodo-BODIPY for 30 min, green LED irradiation for 3 hours
Method: BV-2 cells were treated for 18 hours with 5 μg/ml LPS in DMEM with 5% FBS to induce lipid droplet formation. Controls received vehicle solution (PBS) only. Cells were washed twice in PBS and incubated in 3.8 μM iodo-BODIPY (see FIG. 8, Panel A; iodo-BODIPY was kindly provided by Prof. Carolyn Bertozzi, Chemistry department, Stanford University) in PBS for 30 min in the incubator (5% CO2, 37° C.). Cells were washed twice in PBS and then irradiated under visible light (green LED; 9 W, 150 mA, 2000 lux) for 3 hours at RT. Non-irradiated cells were kept at RT for 3 hours without irradiation.
To assess cell viability after photoirradiation, irradiated and non-irradiated BV-2 cells were stained with 1 μM Calcein AM (Invitrogen) in PBS for 15 min at 37° C. Cells were then examined by fluorescence microscopy (Keyence Corp., Osaka, Japan) and the percentage of green, Calcein^+BV-2 cells (live cells) of total methyl-di-iodo BODIPY^+ cells (red, lipid droplet containing cells) was calculated.

BV-2 cells [2] = experiment: In vitro phagocytosis assay (pHrodo red Zymosan uptake); type: cell-based, mouse
Method: (§1) To induce lipid droplet formation, subconfluent BV-2 cells were treated for 18 hours with 5 μg/ml LPS (Lipopolysaccharide from E. coli, Sigma) in DMEM+5% FBS. Controls received vehicle solution (PBS) only. To inhibit lipid droplet formation, BV-2 cells were pre-treated with 1 μM Triacsin C (Cayman Chemical) or vehicle (saline) in DMEM+5% FBS. 30 min after adding Triacsin C, LPS or LPS-vehicle solution were added and cells were co-treated with Triacsin C and LPS for 18 hours.
For in vitro phagocytosis assays, BV-2 cells were split into 96 well plates at 1000 cells per well in DMEM+5% FBS and treated with LPS, Triacsin C and vehicle solutions for 18 hours. Following specific treatments, 5 ng pHRodo Red Zymosan™ Bioparticles (Thermo Fisher Scientific P35364) in 100 μl DMEM+5% FBS were added per well. Four phase contrast and red fluorescent images per well were acquired every 2 hours for 16 hours using the Incucyte S3 live cell analysis system (Essen Bioscience). For each time point, phagocytosis was calculated by normalizing red fluorescent area to phase confluence.

[3] = test system: hippocampal LD-low and LD-high microglia; experiment: Cytokine assay on acutely isolated primary microglia (multiplex array); type: cell-based, mouse; conditions: aged mice, 100 ng/ml LPS for 8 hours; IL-10, CCL3, CCL4, IL-6, CCL5, TNF-α, IL-1β, IL-1α, CXCL1, CXCL10
Method: Primary microglia from hippocampi of 3-month (young) and 20-month-old (aged) wild type mice were isolated as described above (see Microglia Isolation, hippocampi from 3 mice were pooled per age group). CD11b^+CD45^lo primary microglia from young mice, and CD11b^+CD45^lo primary microglia sorted for BODIPY^lo and BODIPY^hi cells from aged mice were sorted into 5% FBS-containing microglial culture medium (DMEM/F12, 1% Pen/Strep; 2 mM glutamine; 5 ug/mL N-acetyl cysteine; 5 ug/mL insulin; 100 ug/mL apo-transferrin; 100 ng/mL sodium selenite; 2 ng/mL human TGF-2; 100 ng/mL murine IL-34; 1.5 ug/mL ovine wool cholesterol; 10 ug/mL heparin sulfate)s. Cells were seeded into 96 well plates at 5000 cells per well in 100 μl microglia culture medium with 5% FBS and incubated for 30 min in the incubator (37° C., 5% CO2). Next, cells were treated with 100 ng/ml LPS or PBS for 8 hours, and supernatant was collected and secreted signaling proteins were measured in culture supernatants using the ‘Mouse Cytokine/Chemokine Array 31-Plex’ from Eve Technologies (Canada).

BV-2 cells [4] = experiment: BODIPY in vitro staining of BV-2 cells (confocal counting of BODIPY+ cells); type: cell-based, mouse
Method: as §1
BV-2 cells were seeded at 5×10^4 cells on poly-L-lysine coated glass coverslips in DMEM+5% FBS. Following specific treatments, cells were fixed in 4% PFA for 30 min, washed 3× in PBS and incubated in PBS with BODIPY™ 493/503 (1:1000 from 1 mg/ml stock solution in DMSO; ThermoFisher) and Hoechst 33342 (1:2000, ThermoFisher) for 10 min at RT. Sections were washed twice in PBS and mounted on microscope slides with Vectashield (H-1000, Vector Laboratories). Four randomly selected visual fields per coverslip were photographed (40× magnification) using a confocal scanning laser microscope (LSM 700, Zeiss) with LSM software (ZEN 2011). To analyze the percentage of lipid droplet-containing BV-2 cells, numbers of total Hoechst^+ cells and of Hoechst^+ cells with BODIPY^+ lipid droplets were counted and the percentage of BODIPY^+BV-2 cells was calculated.

BV-2 cells [5] = experiment: ROS assay (CellROX fluorescence, microscopy and flow cytometry); type: cell-based, mouse
Method: To measure ROS in BV-2 cells, cells were split into 24 well plates at 5×10^4 cells per well in DMEM+5% FBS and treated with LPS, Triacsin C and vehicle solutions for 18 hours. Next, cells were incubated in DMEM+5% FBS with CellROX™ Orange (1:500, Invitrogen) for 30 min at 37° C., washed twice in PBS, and CellROX™ Orange Intensity was examined by fluorescence microscopy (Keyence Corp., Osaka, Japan). Following microscopic analysis, cells were detached using TripLE, transferred to FACS tubes and CellROX™ Orange intensity was analyzed on BD AccuriC6 flow cytometer.

[6] = test system: microglia in the hippocampus; experiment: LPS injections in young mice, BODIPY/Iba1 staining of the hippocampus; type: in vivo, mouse; conditions: 3-month-old mice, i.p. 1 mg LPS/kg BW once daily for four days, compared with vehicle treated controls
Method: 3-month-old wild type mice were injected with LPS (Lipopolysaccharide from E. coli, Sigma), i.p. 1 mg LPS/kg body weight once daily for four consecutive days. Control mice were injected with body weight corresponding volumes of PBS. 24 hours after the last LPS injection mice were euthanized, brains were extracted and brain tissue was processed for immunohistochemistry staining (see Perfusion and tissue processing and Immunohistochemistry and BODIPY staining).
Mice were anesthetized using Avertin (Tribromoethanol) and transcardially perfused with 0.9% NaCl solution. Brains were extracted, fixed in 4% paraformaldehyde for 48 hours, cryoprotected in 30% sucrose and then sectioned sagitally or coronally ([…]) using a freezing microtome (Leica). […]
For quantification of BODIPY^+ microglia, of CD68^hi microglia, of BODIPY^+ lipid droplet numbers and of lipid droplet size, analyses were performed blinded on coded slides. […]
To analyze the percentage of lipid droplet-containing microglia, numbers of total TMEM119^+ or lba1^+ cells and of TMEM119+BODIPY^+ or lba1+BODIPY^+ cells were counted and the percentage of BODIPY^+ microglia was calculated. To assess the percentage of CD68^hi cells, BODIPY^−lba1^+ and BODIPY^+lba1^+ cells with clearly visible CD68 immunoreactive particles were counted and normalized to total BODIPY^−lba1^+ and BODIPY^+lba1^+ cells.

BV-2 cells [7] = experiment: BODIPY fluorescence of BV-2 cells by flow cytometry; type: cell-based, mouse
Method: as §1

[8] = 1 μM Triacsin C co-treated with LPS (5 μg/ml) for 18 hours

With iodo-BODIPY [iBP] the “cell killing after photoirradiation of iBP+ BV-2 cells (Calcein live cell imaging)” value (BV-2 cells [1]) was “selectively killed lipid-droplet rich cells”.
With Lipopolysaccharide from E. coli [LPS] the “phagocytosis (pHrodo red Zymosan uptake) in BV-2 cells” value (BV-2 cells [2]; 5 μg/ml LPS for 18 hours) was “significantly increased phagocytosis”, the “cytokine release of LD-high microglia compared to LD-low microglia upon LPS treatment” value [3] was “strongly exaggerated release of multiple cytokines” and the “increase of lipid droplet containing BODIPY+ BV-2 cells” value (BV-2 cells [4]; 5 μg/ml LPS for 18 hours, compared with control BV-2 cells) was 5 fold. For the same compound, the “ROS generation (CellROX fluorescence) in BV-2 cells” value (BV-2 cells [5]; 5 μg/ml LPS for 18 hours) was “induced elevated ROS generation”, the “increase in lipid droplet containing microglia (BODIPY+Iba1+) in the hippocampus” value [6] was “twofold increase” and the “BODIPY+ fluorescence by flow cytometry” value (BV-2 cells [7]; 5 μg/ml LPS for 18 hours) was “significantly increased”.
In the case of `CCC/C=C/C/C=C/C=C/C=N/NN=O` [Triacsin C], the “pHrodo red Zymosan phagocytosis in LPS-treated cells” value (BV-2 cells [2]; [8]) is reported as “increased Zymosan phagocytosis”, the “effect on LPS-induced increase in BODIPY+ cells” value (BV-2 cells [4]; [8]) is reported as “abolished the LPS-induced increase” and the “ROS levels (CellROX fluorescence) in LPS-treated cells” value (BV-2 cells [5]; [8]) is reported as “significantly reduce ROS levels”. The “effect on BODIPY+ signal in LPS-stimulated BV-2 cells by flow cytometry” value (BV-2 cells [7]; [8]) was “inhibited an increase”.
